Where two headings read alike, the source gives them in different places.
Tests used:
[1] = test system: DGAT1 (in liver microsomes); parameters: method as in Barlind_2012; settings: rat liver microsomes; ref Barlind_2012; read-out: In vitro potency (IC50) against DGAT1; cited from earlier work
[2] = human; cited from earlier work
[3] = rat plasma; cited from earlier work
[4] = test system: HuTu 80 (Human gastrointestinal tumor cell line); parameters: method as in Barlind_2012; settings: HuTu 80 cells; ref Barlind_2012; read-out: In vitro potency (IC50) in HuTu 80; cited from earlier work
[5] = test system: DGAT1 (in liver microsomes); parameters: method as in Barlind_2012; settings: mouse liver microsomes; ref Barlind_2012; read-out: In vitro potency (IC50) against DGAT1; cited from earlier work
[6] = parameters: method as in PMID 23116186; settings: human plasma; cited from earlier work
plasma TAG [7] = test system: plasma TAG; parameters: method as in PMID 23116186; settings: cited from earlier work
plasma TAG [8] = experiment: PK/PD model of plasma TAG after Oral Lipid Tolerance Test (Intralipos 20%)
plasma TAG [9] = settings: human SAD OLTT study, iAUC analysis of plasma TAG vs plasma concentration at start of meal test; read-out: in vivo IC50, previously published; cited from earlier work
plasma TAG [10] = experiment: PK/PD model of plasma TAG after Oral Lipid Tolerance Test (corn oil); settings: rat OLTT, free plasma concentration, read-out: IC50 (free in vivo IC50, inhibition of exogenous TAG contribution to plasma)
Procedure: (§1) Full description of the OLTT in the rat has been published previously.17 In brief, 53 male Han‐Wistar rats (∼230 g), previously maintained on a chow diet, were fasted for 14 hours. […] Six remaining animals were kept untreated and served as naive controls.
Biological plausibility combined with stable parameter estimation was used in the evaluation of different potential PK/PD models to help select the optimal one. The key components of the final PK/PD TAG model are described in Figure 1. The introduction of exogenous TAG into the system is represented by a first order process from the lipid depot compartment (assumed to be the gut) to the central compartment (plasma). A lag time to accommodate the time delay from ingestion of the fatty meal to the resulting increase in plasma TAG was needed. In addition, there is an endogenous production and removal of TAG from plasma described with a turnover model controlled by the turnover rate (kin) (production) and the fractional turnover rate (kout) (loss). Turnover model was reparameterized using the relationship of kin to baseline plasma TAG (R0) (R0 = kin/kout) to increase numerical stability.
KaTAG is the absorption rate of exogenous TAG into plasma, VTAG is the volume of distribution of exogenous TAG, and TlagTAG is the time delay for the absorption of TAG from the SMM. […]

[11] = test system: DGAT1 (in liver microsomes); parameters: method as in Barlind_2012; settings: human liver microsomes; ref Barlind_2012; read-out: In vitro potency (IC50) against DGAT1; cited from earlier work
[12] = PK model of AZD7687 plasma concentrations during mouse OLTT (1-compartment); assay type: in vivo
Procedure: Oral Lipid Tolerance Test in the mouse was carried out in a similar way to rats.
(§2) Full description of all the PK models is provided in supplementary section S1.
(§3) As PK data was only collected for 4h post dose, the ability to fit complex PK models was limited. As with the rat, the aim of the PK fitting was to describe the kinetics of the compound during the OLTT instead of a full characterization of the PK properties of the compound. […] Inter-individual variability was estimated on CL and V parameters according to a log-normal distribution of individual parameters. Correlation between Cl and V parameters was allowed. […] Residual error was characterized with a proportional error model.

[13] = Population PK model of AZD7687 plasma concentrations in SAD and MAD studies (2-compartment, first order absorption); assay type: in vivo; settings: human
Procedure: Full details of the study protocols have previously been reported by Denison et al14 for Single Ascending Dose study (SAD) and Denison et al16 for the Multiple Ascending Dose Study (MAD). In brief, in the SAD, 80 healthy male subjects were enrolled.
as §2
Models were implemented using nonlinear mixed effects modeling in Phoenix NLME, version 1.3 (Certara). The analysis was conducted using the first order conditional estimation (FOCE‐ELS) during the sequential and simultaneous analysis (the expectation maximization method (QRPEM) was used for the simultaneous fitting of the human data due to speed and ability to converge).
Inter-individual variability was estimated on CL, V1, V2 and ka parameters according to a log-normal distribution of individual parameters. […] Residual error was characterized with a proportional plus additive error model.

[14] = mouse plasma; cited from earlier work
plasma TAG [15] = experiment: PK/PD model of plasma TAG after Oral Lipid Tolerance Test (standardized mixed meal)
[16] = PK model of AZD7687 plasma concentrations during rat OLTT (1-compartment); assay type: in vivo
Procedure: as §1, §2
as §3, with “11h” for “4h”, “The” for “As with the rat, the”, “parameters.” for “parameters. Correlation between Cl and V parameters was allowed.”, “proportional plus additive” for “proportional”

[17] = using free concentrations in plasma

For Cc1nc(C)c(-c2ccc(C3CCC(CC(=O)O)CC3)cc2)nc1C(N)=O (stereo not drawn) [AZD7687], the IC50 [1] is given as 150 nM, the “side effects leading to stop of clinical development” value [2] is given as “intolerable side effects” and the “free fraction (fu)” value [3] is given as 0.03. For the same molecule, the IC50 [4] was 10 nM, the IC50 [5] was 100 nM and the “free fraction (fu)” value [6] was 0.055. The IC50 (plasma TAG [7]; rat OLTT study, single time point data for plasma TAG and PK, read-out: in vivo IC50, previously published) was 42 nM, the “effect on TAG excursion after OLTT” value (plasma TAG [7]; rats, exposure dependant) was “reduces the TAG excursion” and the IC50 (plasma TAG [8]; Mus musculus, po, read-out: IC50 (free in vivo IC50, inhibition of exogenous TAG contribution to plasma), mouse OLTT, free plasma concentration) was 81 nM. The IC50 (plasma TAG [8]; read-out: IC50 (free in vivo IC50, inhibition of exogenous TAG contribution to plasma), mouse OLTT, free plasma concentration) was 80 nM, the IC50 (plasma TAG [9]) was 20 nM and the IC50 (plasma TAG [10]) was 162 nM. For the same molecule, the IC50 [11] was 70 nM, the V ([12]; Table 1, free concentrations) was 13.14 L and the CL/F ([12]; male, ICR, oral, supplement, free concentrations in plasma, read-out: tvCl (apparent clearance) (converted)) was 36.2 mL/min/kg. For the same molecule, the Vd ([12]; male, ICR, oral, supplement, free concentrations in plasma, read-out: tvV (apparent volume of distribution)) was 13.1 L/kg, the clearance ([12]; male, ICR, plasma, oral, Table 1, free concentrations) was 36.2 mL/min and the “Cl (tvCL, apparent clearance)” value [13, 17] was 28.1 L/h. The “V2 (tvV2, peripheral volume of distribution)” value [13, 17] was 136.8 L, the Tmax ([13]; male, plasma, post dose, oral, read-out: T max in plasma) was no more than 1 h and the Vd ([13]; male, oral, using free concentrations in plasma, read-out: V (tvV1, central volume of distribution)) was 320 L. The “free fraction (fu)” value [14] was 0.1, the IC50 (plasma TAG [15]; Homo sapiens, po, read-out: IC50 (free in vivo IC50, inhibition of exogenous TAG contribution to plasma), human OLTT, free plasma concentration) was 8 nM and the IC50 (plasma TAG [15]; read-out: IC50 (free in vivo IC50, inhibition of exogenous TAG contribution to plasma), human OLTT, free plasma concentration) was 7.8 nM. For the same molecule, the “IIV V” value ([16]; in vivo) was 11.7%, the CL/F ([16]; male, Han-Wistar, oral, supplement, free concentrations in plasma, read-out: tvCl (apparent clearance) (converted)) was 12.2 mL/min/kg and the clearance ([16]; male, Han-Wistar, plasma, oral, Table 1, free concentrations) was 12.2 mL/min.

— PMC6408865 (Pharmacology Research & Perspectives, 2019)
